For one data set, the target named is T1, Broad substrate specificity ATP-binding cassette transporter ABCG2 (Homo sapiens, UniProt Q9UNQ0).
T1 sequence (Q9UNQ0 whole entry): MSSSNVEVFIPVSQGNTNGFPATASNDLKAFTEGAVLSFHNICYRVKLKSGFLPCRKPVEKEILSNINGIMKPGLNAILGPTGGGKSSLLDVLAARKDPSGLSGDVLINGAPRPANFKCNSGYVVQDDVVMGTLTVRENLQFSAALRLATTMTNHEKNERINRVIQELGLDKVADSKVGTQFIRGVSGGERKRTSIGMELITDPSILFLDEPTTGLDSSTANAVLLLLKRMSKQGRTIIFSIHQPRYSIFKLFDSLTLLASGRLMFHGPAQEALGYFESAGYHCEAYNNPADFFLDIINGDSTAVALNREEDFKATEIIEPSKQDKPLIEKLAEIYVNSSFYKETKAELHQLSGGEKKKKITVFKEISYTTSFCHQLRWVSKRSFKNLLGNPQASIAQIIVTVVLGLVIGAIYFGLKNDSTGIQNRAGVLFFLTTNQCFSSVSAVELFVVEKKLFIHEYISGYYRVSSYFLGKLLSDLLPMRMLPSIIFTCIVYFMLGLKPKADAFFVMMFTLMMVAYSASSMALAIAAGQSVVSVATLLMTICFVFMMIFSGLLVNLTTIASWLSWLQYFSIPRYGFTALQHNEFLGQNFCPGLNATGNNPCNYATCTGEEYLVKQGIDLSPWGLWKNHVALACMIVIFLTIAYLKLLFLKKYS
As to the kind of experiment: TP_TRANSPORTER: drug resistance in BCRP-expressing K562 cells. The class given is functional, cell-based.
For the compound `CCc1c2c(nc3ccc(O)cc13)-c1cc3c(c(=O)n1C2)COC(=O)[C@]3(O)CC` [7-ETHYL-10-HYDROXYCAMPTOTHECIN], the Activity result was “substrate []”.

On to `O=C1c2c(O)ccc(O)c2C(=O)c2c(NCCNCCO)ccc(NCCNCCO)c21` [MITOXANTRONE], for which the Activity entry is “substrate []”.

`CC[C@@]1(O)C(=O)OCc2c1cc1n(c2=O)Cc2cc3c(CN(C)C)c(O)ccc3nc2-1` [TOPOTECAN]: the Activity entry is “substrate []”.

For the next data set, the target named is T1, Broad substrate specificity ATP-binding cassette transporter ABCG2. As to the kind of experiment: TP_TRANSPORTER: inhibition of topotecan uptake in BCRP-expressing K562 cells. Type of data set: functional, cell-based.
As to `CC/C(=C(/c1ccc(OCCN(C)C)cc1)c1ccc(OCc2ccc([N+](=O)[O-])cc2)cc1)c1ccccc1`, the Activity entry is “inhibitor []”.

`CC/C(=C(\c1ccc(O)cc1)c1ccc(OCCNC)cc1)c1ccc(C(C)CO)cc1` (configuration not stated): the Activity result was “inhibitor []”.

Regarding `CC/C(=C(\c1ccc(O)cc1)c1ccc(OCCN(C)C)cc1)c1ccc(OC)cc1`, the Activity result was “inhibitor []”.

On to `CC/C(=C(\c1ccc(O)cc1)c1ccc(OCCN(C)C)cc1)c1ccc(OCc2ccccc2)cc1`, for which the Activity result is “inhibitor []”.

For the compound `CC/C(=C(/c1ccc(OCCN(C)C)cc1)c1ccc(OCc2ccccc2)cc1)c1ccccc1`, the Activity entry is “inhibitor []”.

Take `CCC(=O)Oc1ccc(/C(CC)=C(\CC)c2ccc(OC(=O)CC)cc2)cc1` [DIETHYLSTILBESTROL DIPROPIONATE]: the Activity entry is “inhibitor []”.

As for `CC/C(=C(/CC)c1ccc(O)cc1)c1ccc(O)cc1` [DIETHYLSTILBESTROL], the Activity result was “inhibitor []”.

Take `C[C@]12CC[C@@H]3c4ccc(O)cc4CC[C@H]3[C@@H]1CCC2=O` [ESTRONE]: the Activity entry is “inhibitor []”.

Turning to `CC/C(=C(\c1ccc(O)cc1)c1ccc(OCCN(C)C)cc1)c1ccc(C(C)C)cc1` [MIPROXIFENE], the Activity entry is “inhibitor []”.

Values taken from ChEMBL document CHEMBL2074130, “Reversal of breast cancer resistance protein-mediated drug resistance by estrogen antagonists and agonists” (Mol Cancer Ther, 2003).
